Data from the supplement of paper PMC11451515.

System: SEM cells
Experiment: cell viability relative to DMSO control; higher = less cytotoxic
Conditions: 48 h
Procedure, shortened: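 NOMO1 or SEM (500 cells/well) or P12-Ichikawa (1000 cells/well) leukemia cells were adapted for at least four passages in each medium. They were seeded in 1536-well plates (5 μl) and pin-dosed with library compounds in DMSO over an 11-point threefold series, 47 μM to 0.79 nM. CellTiter-Glo One luminescence was read after 48 h at 37°C. Viability is the per-plate percentage relative to DMSO wells, with cell-free wells as background.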

[1] = HPLM + 10% dialyzed FBS, 0.000781 µM
[2] = HPLM + 10% dialyzed FBS, 0.00234 µM
[3] = HPLM + 10% dialyzed FBS, 0.00702 µM
[4] = HPLM + 10% dialyzed FBS, 0.0211 µM
[5] = HPLM + 10% dialyzed FBS, 0.0632 µM
[6] = HPLM + 10% dialyzed FBS, 0.19 µM
[7] = HPLM + 10% dialyzed FBS, 0.569 µM
[8] = HPLM + 10% dialyzed FBS, 1.71 µM
[9] = HPLM + 10% dialyzed FBS, 5.12 µM
[10] = HPLM + 10% dialyzed FBS, 15.4 µM
[11] = HPLM + 10% dialyzed FBS, 46.1 µM
[12] = RPMI 5 mM glucose + 10% FBS, 0.000781 µM
[13] = RPMI 5 mM glucose + 10% FBS, 0.00234 µM
[14] = RPMI 5 mM glucose + 10% FBS, 0.00702 µM
[15] = RPMI 5 mM glucose + 10% FBS, 0.0211 µM
[16] = RPMI 5 mM glucose + 10% FBS, 0.0632 µM
[17] = RPMI 5 mM glucose + 10% FBS, 0.19 µM
[18] = RPMI 5 mM glucose + 10% FBS, 0.569 µM
[19] = RPMI 5 mM glucose + 10% FBS, 1.71 µM
[20] = RPMI 5 mM glucose + 10% FBS, 5.12 µM
[21] = RPMI 5 mM glucose + 10% FBS, 15.4 µM
[22] = RPMI 5 mM glucose + 10% FBS, 46.1 µM
[23] = RPMI 5 mM glucose + 10% dialyzed FBS, 0.000781 µM
[24] = RPMI 5 mM glucose + 10% dialyzed FBS, 0.00234 µM
[25] = RPMI 5 mM glucose + 10% dialyzed FBS, 0.00702 µM
[26] = RPMI 5 mM glucose + 10% dialyzed FBS, 0.0211 µM
[27] = RPMI 5 mM glucose + 10% dialyzed FBS, 0.0632 µM
[28] = RPMI 5 mM glucose + 10% dialyzed FBS, 0.19 µM
[29] = RPMI 5 mM glucose + 10% dialyzed FBS, 0.569 µM
[30] = RPMI 5 mM glucose + 10% dialyzed FBS, 1.71 µM
[31] = RPMI 5 mM glucose + 10% dialyzed FBS, 5.12 µM
[32] = RPMI 5 mM glucose + 10% dialyzed FBS, 15.4 µM
[33] = RPMI 5 mM glucose + 10% dialyzed FBS, 46.1 µM

| Compound | cell viability [1] | cell viability [2] | cell viability [3] | cell viability [4] | cell viability [5] | cell viability [6] | cell viability [7] | cell viability [8] | cell viability [9] | cell viability [10] | cell viability [11] | cell viability [12] | cell viability [13] | cell viability [14] | cell viability [15] | cell viability [16] | cell viability [17] | cell viability [18] | cell viability [19] | cell viability [20] | cell viability [21] | cell viability [22] | cell viability [23] | cell viability [24] | cell viability [25] | cell viability [26] | cell viability [27] | cell viability [28] | cell viability [29] | cell viability [30] | cell viability [31] | cell viability [32] | cell viability [33] |
| --- | --- | --- | --- | --- | --- | --- | --- | --- | --- | --- | --- | --- | --- | --- | --- | --- | --- | --- | --- | --- | --- | --- | --- | --- | --- | --- | --- | --- | --- | --- | --- | --- | --- |
| Cc1cnc(Nc2ccc(N3CCN(C)CC3)cc2)nc1Nc1cccc([S+](=O)([O-])NC(C)(C)C)c1 | 110% | 110% | 118% | 114% | 116% | 94.9% | 85.1% | 27.2% | 7.39% | 2.61% | 3.12% | 116% | 113% | 107% | 114% | 104% | 90.2% | 77.8% | 22.8% | 5.43% | 2.59% | 3.4% | 106% | 105% | 119% | 110% | 101% | 88.4% | 97.9% | 26.2% | 7.58% | 2.94% | 3.71% |
| Oc1c(Cl)cc(Cl)c2cccnc12 | 112% | 77% | 121% | 104% | 109% | 120% | 122% | 108% | 104% | 66.3% | 12.3% | 108% | 102% | 94% | 103% | 102% | 113% | 120% | 91.4% | 112% | 71% | 7.14% | 107% | 93.8% | 85.1% | 97.2% | 97.5% | 96.3% | 101% | 116% | 99.1% | 59.8% | 7.1% |
| COc1ccc([S+](=O)([O-])Nc2cccnc2Nc2ccc(O)cc2)cc1 | 124% | 127% | 114% | 116% | 127% | 115% | 123% | 96.1% | 20.9% | 25.5% | 21.6% | 76.2% | 82.1% | 65.8% | 86.4% | 77.6% | 82.6% | 77.1% | 79.1% | 36.2% | 17.5% | 13.5% | 114% | 109% | 109% | 105% | 102% | 124% | 113% | 96.5% | 47.5% | 23.4% | 20.2% |
| Nc1ccn([C@H]2CS[C@@H](CO)O2)c(=O)n1 | 81.2% | 108% | 109% | 122% | 137% | 126% | 123% | 129% | 123% | 101% | 147% | 101% | 116% | 108% | 135% | 157% | 138% | 141% | 130% | 144% | 153% | 144% | 104% | 136% | 117% | 134% | 144% | 138% | 139% | 135% | 138% | 110% | 135% |
| CN1CCN(CCCN2c3ccccc3Sc3ccc(Cl)cc32)CC1.O=C(O)/C=C\C(=O)O.O=C(O)/C=C\C(=O)O | 105% | 112% | 110% | 113% | 108% | 112% | 104% | 114% | 112% | 117% | 82.2% | 102% | 113% | 118% | 111% | 129% | 122% | 119% | 121% | 119% | 115% | 68.6% | 101% | 99.7% | 128% | 113% | 115% | 122% | 119% | 133% | 133% | 116% | 104% |
| Nc1ccc([S+](=O)([O-])Nc2ncccn2)cc1 | 100% | 103% | 105% | 96.8% | 109% | 117% | 99.7% | 110% | 103% | 109% | 112% | 110% | 108% | 120% | 86.1% | 117% | 117% | 108% | 122% | 126% | 114% | 110% | 111% | 109% | 125% | 74.4% | 122% | 136% | 133% | 129% | 145% | 134% | 124% |
| Oc1ccc(-c2ccc(-c3cc(Nc4cccc(CNC5CC5)c4)[nH]n3)cc2)c(O)c1 | 82.4% | 100% | 93.7% | 93.7% | 70.7% | 103% | 91.1% | 46.7% | 25.7% | 9.24% | 6.68% | 97.8% | 106% | 95% | 101% | 72.6% | 89.7% | 110% | 94.5% | 45.7% | 27.4% | 4.97% | 89% | 96.9% | 100% | 87.9% | 84.1% | 99.6% | 100% | 84.8% | 60.2% | 22.8% | 9.47% |
